Reference: the supplement of paper PMC10307832

Legend:
Experiment in all cases: relative viability (nuclei count vs DMSO), 5 days (fraction); higher = more cells survive
[1] = compound: C1=CC2=NC=CN=C2C=C1/C=C/3\C(=O)NC(=O)S3 + Nc1ncn([C@H]2C[C@H](O)[C@@H](CO)O2)c(=O)n1 [Decitabine] (partner 2 µM)
Procedure, shortened: (§1)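 Lung cancer cell lines were pin-tool dosed in 1536-well plates on the day after seeding, with either a lone drug or a fixed anchor-drug dose plus five library-drug doses (not always all listed) in √10 steps. Nuclei were counted on 4× images after 5 days. Relative viability is the ratio of treated-well to vehicle-well nuclei counts, with each value a median of duplicate plates.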

BGJ398 + OSI-027 = compound: CCN1CCN(c2ccc(Nc3cc(N(C)C(=O)Nc4c(Cl)c(OC)cc(OC)c4Cl)ncn3)cc2)CC1 [BGJ398] + COc1cccc2cc(-c3nc([C@H]4CC[C@H](C(=O)O)CC4)n4ncnc(N)c34)[nH]c12 [OSI-027] (partner 0.5 µM)
Procedure, shortened: as §1

[2] = compound: C1=CC2=NC=CN=C2C=C1/C=C/3\C(=O)NC(=O)S3 + COc1cccc2cc(-c3nc([C@H]4CC[C@H](C(=O)O)CC4)n4ncnc(N)c34)[nH]c12 [OSI-027] (partner 0.5 µM)
Procedure, shortened: as §1

[3] = compound: C1=CC2=NC=CN=C2C=C1/C=C/3\C(=O)NC(=O)S3 + C[C@@H](Oc1cc(-c2cnn(C3CCNCC3)c2)cnc1N)c1c(Cl)ccc(F)c1Cl [Crizotinib] (partner 1 µM)
Procedure, shortened: as §1

Cell Line | relative viability ([1]; first compound 0.02 µM) | relative viability ([1]; first compound 0.06325 µM) | relative viability ([1]; first compound 0.2 µM) | relative viability ([1]; first compound 0.6325 µM) | relative viability ([1]; first compound 2 µM) | relative viability (BGJ398 + OSI-027; first compound 0.01 µM) | relative viability (BGJ398 + OSI-027; first compound 0.03162 µM) | relative viability (BGJ398 + OSI-027; first compound 0.1 µM) | relative viability (BGJ398 + OSI-027; first compound 0.3162 µM) | relative viability (BGJ398 + OSI-027; first compound 1 µM) | relative viability ([2]; first compound 0.02 µM) | relative viability ([2]; first compound 0.06325 µM) | relative viability ([2]; first compound 0.2 µM) | relative viability ([2]; first compound 0.6325 µM) | relative viability ([2]; first compound 2 µM) | relative viability ([3]; first compound 0.02 µM) | relative viability ([3]; first compound 0.06325 µM) | relative viability ([3]; first compound 0.2 µM) | relative viability ([3]; first compound 0.6325 µM) | relative viability ([3]; first compound 2 µM)
COR-L 105 | 0.599 | 0.69 | 0.673 | 0.683 | 0.593 | 0.644 | 0.441 | 0.704 | 0.519 | 0.654 | 0.743 | 0.669 | 0.729 | 0.623 | 0.435 | 0.613 | 0.887 | 0.905 | 0.814 | 0.711
RERF-LC-KJ | 0.596 | 0.726 | 0.681 | 0.632 | 0.628 | 0.587 | 0.576 | 0.654 | 0.573 | 0.506 | 0.571 | 0.569 | 0.704 | 0.606 | 0.332 | 0.547 | 0.927 | 0.864 | 0.837 | 0.753
LXF-289 | 0.357 | 0.374 | 0.334 | 0.379 | 0.389 | 0.708 | 0.795 | 0.806 | 0.768 | 0.799 | 0.744 | 0.756 | 0.788 | 0.804 | 0.395 | 0.766 | 0.735 | 0.785 | 0.777 | 0.858
PC-14 | 0.242 | 0.272 | 0.237 | 0.204 | 0.275 | 0.781 | 0.16 | 1.07 | 0.464 | 1.07 | 0.771 | 0.67 | 0.815 | 0.804 | 0.692 | 0.821 | 0.954 | 0.869 | 0.972 | 0.864
NCI-H650 | 0.32 | 0.287 | 0.356 | 0.319 | 0.342 | 0.477 | 0.519 | 0.535 | 0.505 | 0.503 | 0.519 | 0.601 | 0.621 | 0.495 | 0.269 | 0.805 | 0.707 | 0.627 | 0.714 | 0.652
NCI-H1666 | 0.717 | 0.709 | 0.775 | 0.691 | 0.672 | 0.859 | 0.834 | 0.862 | 0.886 | 0.764 | 0.873 | 0.825 | 0.84 | 0.812 | 0.459 | 0.992 | 1.02 | 1.05 | 1.01 | 1.07
NCI-H2085 | 0.495 | 0.457 | 0.578 | 0.539 | 0.566 | 0.706 | 0.673 | 0.84 | 0.663 | 0.807 | 0.75 | 0.847 | 0.82 | 0.827 | 0.635 | 0.897 | 0.917 | 0.766 | 0.829 | 0.937
NCI-H1734 | 0.483 |  | 0.517 | 0.501 | 0.489 | 0.589 | 0.645 | 0.675 | 0.579 | 0.702 | 0.697 | 0.487 | 0.665 | 0.522 | 0.324 | 0.665 |  | 0.808 | 0.637 | 0.611
NCI-H2126 | 0.567 | 0.647 | 0.567 | 0.527 | 0.481 | 0.864 | 0.705 | 0.664 | 0.721 | 0.687 | 0.627 | 0.629 | 0.735 | 0.734 | 0.363 | 0.995 | 1.11 | 0.97 | 0.974 | 0.957
EMC-BAC-2 | 0.933 | 1.01 | 1.05 | 0.922 | 0.808 | 0.357 | 0.417 | 0.398 | 0.333 | 0.37 | 0.307 | 0.436 | 0.416 | 0.37 | 0.251 | 0.733 | 0.767 | 0.76 | 0.661 | 0.763
NCI-H1993 | 0.527 | 0.594 | 0.737 | 0.557 | 0.507 | 0.525 | 0.535 | 0.564 | 0.507 | 0.649 | 0.494 | 0.552 | 0.551 | 0.544 | 0.475 | 0.914 | 1.03 | 0.806 | 0.848 | 0.668
NCI-H520 | 0.481 | 0.545 | 0.482 | 0.436 | 0.562 | 0.198 | 0.243 | 0.183 | 0.147 | 0.176 | 0.25 | 0.356 | 0.249 | 0.27 | 0.36 | 0.721 | 1.01 | 0.713 | 0.785 | 0.756
NCI-H647 | 0.339 | 0.458 | 0.382 | 0.432 | 0.488 | 0.554 | 0.765 | 0.724 | 0.638 | 0.536 | 0.531 | 0.84 | 0.633 | 0.532 | 0.515 | 0.989 | 1.77 | 1.19 | 1.03 | 1
NCI-H1792 | 0.535 |  | 0.6 | 0.513 | 0.374 | 0.684 | 0.731 | 0.762 | 0.581 | 0.416 | 0.722 | 0.65 | 0.728 | 0.666 | 0.294 | 0.936 | 0.872 | 1.02 | 0.792 | 0.668
SK-LU-1 | 0.597 | 0.712 | 0.74 | 0.639 | 0.596 | 0.333 | 0.4 | 0.362 | 0.272 | 0.35 | 0.371 | 0.358 | 0.332 | 0.396 | 0.207 | 0.913 | 1.3 | 0.985 | 0.903 | 1.07
